ChEMBL document CHEMBL3108774, “Azaindoles: noncovalent DprE1 inhibitors from scaffold morphing efforts, kill Mycobacterium tuberculosis and are efficacious in vivo” (J Med Chem, 2013)
pIC50: −log10 of the molar value. Converted amounts (≈) assume the structure as drawn.

Assays:
[1] = Inhibition of Mycobacterium smegmatis thioredoxin 6xHis-tagged decaprenylphosphoryl-beta-D-ribose2'-epimerase1 overexpressed in Escherichia coli rossetta cells using farnesyl-phosphoryl-beta-D-ribofuranose as substrate; design: species or system Mycolicibacterium smegmatis
[2] = tested on: Mycobacterium tuberculosis; test: Antimicrobial activity against Mycobacterium tuberculosis H37Rv ATCC 27294 assessed as growth inhibition after 5 days by microdilution method; format: functional; conditions: H37Rv ATCC 27294, 120 h
[3] = AUC in BALB/C mouse infected with Mycobacterium tuberculosis H37Rv ATCC 27294 at 50 to 200 mg/kg, po qd administered for 24 days by LC-MS/MS analysis; format: ADME, organism-based; design: dose 50-200 mg/kg, route oral; conditions: plasma
Cytochrome P450 1A2 = target: T1, Cytochrome P450 1A2 (Homo sapiens, UniProt P05177); test: Inhibition of human CYP1A2; format: ADME
T1 sequence (P05177 whole entry): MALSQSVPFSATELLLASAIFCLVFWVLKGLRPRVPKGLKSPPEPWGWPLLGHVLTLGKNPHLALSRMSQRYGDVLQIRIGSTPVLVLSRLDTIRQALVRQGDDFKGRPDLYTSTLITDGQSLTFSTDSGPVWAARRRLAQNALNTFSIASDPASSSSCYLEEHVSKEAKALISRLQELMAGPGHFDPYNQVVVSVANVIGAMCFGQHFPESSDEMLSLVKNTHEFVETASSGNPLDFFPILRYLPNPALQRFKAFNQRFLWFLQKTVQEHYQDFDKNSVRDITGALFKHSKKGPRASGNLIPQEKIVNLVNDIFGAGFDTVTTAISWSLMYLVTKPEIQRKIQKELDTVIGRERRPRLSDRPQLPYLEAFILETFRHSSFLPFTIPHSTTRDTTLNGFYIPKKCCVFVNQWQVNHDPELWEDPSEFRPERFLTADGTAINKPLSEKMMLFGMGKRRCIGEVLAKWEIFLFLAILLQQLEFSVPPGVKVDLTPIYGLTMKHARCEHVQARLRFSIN

Cytochrome P450 3A4 = Cytochrome P450 3A4 (Homo sapiens, UniProt P08684); test: Inhibition of human CYP3A4; format: ADME
Cytochrome P450 2C9 = Cytochrome P450 2C9 (Homo sapiens, UniProt P11712); test: Inhibition of human CYP2C9; format: ADME
[4] = Cytotoxicity against human A549 cells assessed as cell viability after 72 hrs by resazurin staining-based fluorimetric analysis; conditions: read-out: MIC
Cytochrome P450 2C19 = Cytochrome P450 2C19 (Homo sapiens, UniProt P33261); test: Inhibition of human CYP2C19; format: ADME
[5] = target: Voltage-gated inwardly rectifying potassium channel KCNH2 (Homo sapiens, UniProt Q12809); test: Inhibition of human ERG
Cytochrome P450 2D6 = Cytochrome P450 2D6 (Homo sapiens, UniProt P10635); test: Inhibition of human CYP2D6; format: ADME
[6] = tested on: Mycobacterium tuberculosis; test: Bactericidal activity against Mycobacterium tuberculosis H37Rv ATCC 27294 after 5 days by microdilution method; format: functional; conditions: H37Rv ATCC 27294, 120 h
[7] = Inhibition of Mycobacterium smegmatis thioredoxin 6xHis-tagged decaprenylphosphoryl-beta-D-ribose2'-epimerase1 Y321H mutant overexpressed in Escherichia coli rossetta cells using farnesyl-phosphoryl-beta-D-ribofuranose as substrate; design: species or system Mycolicibacterium smegmatis
[8] = Inhibition of Mycobacterium smegmatis thioredoxin 6xHis-tagged decaprenylphosphoryl-beta-D-ribose2'-epimerase1 C394G mutant overexpressed in Escherichia coli rossetta cells using farnesyl-phosphoryl-beta-D-ribofuranose as substrate; design: species or system Mycolicibacterium smegmatis
[9] = tested on: Mycobacterium tuberculosis; test: Bactericidal activity against hypoxia induced nonreplicating persistent Mycobacterium tuberculosis H37Rv after 7 days; format: functional; conditions: 168 h
[10] = Kinetic solubility of the compound in phosphate buffer at pH 7.4 after 24 hrs by LC-MS analysis; format: physicochemical; conditions: read-out: Kinetic_solubility
[11] = Unbound fraction in human plasma; format: ADME, cell-free
[12] = tested on: Mycobacterium tuberculosis; test: Antimicrobial activity against po dosed Mycobacterium tuberculosis H37Rv ATCC 27294 infected BALB/C mouse acute infection model assessed as reduced bacterial burden in lungs administered 3 days postinfection measured after 4 weeks; format: functional, organism-based; conditions: Lung
[13] = tested on: Mycobacterium tuberculosis; test: Bactericidal activity against Mycobacterium tuberculosis H37Rv ATCC 27294 infected in human THP1 cells assessed as reduction in CFU at 1 to 4 times MIC by time-kill method; format: functional, THP-1
[14] = tested on: Mycobacterium tuberculosis; test: Antimicrobial activity against Mycobacterium tuberculosis H37Rv ATCC 27294 infected in BALB/C mouse acute infection model assessed as reduced bacterial burden in lungs at 50 to 100 mg/kg, po administered 3 days postinfection measured after 4 weeks; format: functional, Lung; conditions: dose mg/kg 50-100
[15] = tested on: Mycobacterium tuberculosis; test: Antimicrobial activity against po dosed Mycobacterium tuberculosis H37Rv ATCC 27294 infected BALB/C mouse chronic infection model assessed as reduced bacterial burden in lungs administered on day 28 measured after 4 weeks; format: functional, organism-based; conditions: Lung
Mus musculus = test: fT>MIC in BALB/C mouse infected with Mycobacterium tuberculosis H37Rv ATCC 27294 at 50 to 200 mg/kg, po qd after 10 to 24 hrs
[16] = tested on: Mycobacterium tuberculosis; test: Bactericidal activity against Mycobacterium tuberculosis H37Rv ATCC 27294 infected in human THP1 cells assessed as reduction in CFU at 1 to 4 times MIC at day 10 by time-kill method; format: functional, THP-1
[17] = tested on: Mycobacterium tuberculosis; test: Bactericidal activity against hypoxia induced nonreplicating persistent Mycobacterium tuberculosis H37Rv assessed as reduction in CFU at 30 times MIC; format: functional
[18] = tested on: Mycobacterium tuberculosis; test: Antimicrobial activity against Mycobacterium tuberculosis H37Rv ATCC 27294 infected in BALB/C mouse chronic infection model assessed as reduced bacterial burden in lungs at 30 to 100 mg/kg, po administered on day 28 measured after 4 weeks; format: functional, Lung; conditions: dose mg/kg 30-100

Sequence of Voltage-gated inwardly rectifying potassium channel KCNH2 (Q12809 whole entry): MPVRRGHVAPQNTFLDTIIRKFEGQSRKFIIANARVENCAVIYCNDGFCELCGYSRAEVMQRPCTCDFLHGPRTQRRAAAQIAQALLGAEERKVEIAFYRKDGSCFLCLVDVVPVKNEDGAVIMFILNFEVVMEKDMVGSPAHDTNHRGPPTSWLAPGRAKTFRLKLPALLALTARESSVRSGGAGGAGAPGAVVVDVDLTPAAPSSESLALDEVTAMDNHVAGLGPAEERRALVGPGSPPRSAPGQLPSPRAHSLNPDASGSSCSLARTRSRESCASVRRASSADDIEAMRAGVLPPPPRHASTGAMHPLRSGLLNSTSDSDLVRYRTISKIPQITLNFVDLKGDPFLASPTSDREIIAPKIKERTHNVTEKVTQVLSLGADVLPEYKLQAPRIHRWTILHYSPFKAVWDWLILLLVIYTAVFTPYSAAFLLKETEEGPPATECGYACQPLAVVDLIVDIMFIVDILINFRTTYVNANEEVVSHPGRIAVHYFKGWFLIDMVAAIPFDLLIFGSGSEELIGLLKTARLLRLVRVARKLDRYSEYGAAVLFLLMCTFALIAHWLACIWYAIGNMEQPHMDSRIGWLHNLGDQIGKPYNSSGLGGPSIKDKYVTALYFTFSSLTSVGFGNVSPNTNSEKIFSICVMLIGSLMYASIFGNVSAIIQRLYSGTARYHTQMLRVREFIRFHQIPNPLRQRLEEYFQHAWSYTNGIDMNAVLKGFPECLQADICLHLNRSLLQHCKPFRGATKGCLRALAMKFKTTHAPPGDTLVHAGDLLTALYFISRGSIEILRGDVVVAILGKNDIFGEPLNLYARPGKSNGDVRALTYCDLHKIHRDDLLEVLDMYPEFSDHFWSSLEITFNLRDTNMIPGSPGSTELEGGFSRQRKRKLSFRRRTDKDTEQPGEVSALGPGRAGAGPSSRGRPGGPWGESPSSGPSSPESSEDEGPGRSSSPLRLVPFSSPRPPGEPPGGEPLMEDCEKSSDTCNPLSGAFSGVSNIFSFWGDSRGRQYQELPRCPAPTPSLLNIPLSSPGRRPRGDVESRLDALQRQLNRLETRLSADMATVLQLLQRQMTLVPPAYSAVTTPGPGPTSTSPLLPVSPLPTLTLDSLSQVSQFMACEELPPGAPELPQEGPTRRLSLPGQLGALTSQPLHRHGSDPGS
Sequence of Cytochrome P450 2C9 (P11712 whole entry): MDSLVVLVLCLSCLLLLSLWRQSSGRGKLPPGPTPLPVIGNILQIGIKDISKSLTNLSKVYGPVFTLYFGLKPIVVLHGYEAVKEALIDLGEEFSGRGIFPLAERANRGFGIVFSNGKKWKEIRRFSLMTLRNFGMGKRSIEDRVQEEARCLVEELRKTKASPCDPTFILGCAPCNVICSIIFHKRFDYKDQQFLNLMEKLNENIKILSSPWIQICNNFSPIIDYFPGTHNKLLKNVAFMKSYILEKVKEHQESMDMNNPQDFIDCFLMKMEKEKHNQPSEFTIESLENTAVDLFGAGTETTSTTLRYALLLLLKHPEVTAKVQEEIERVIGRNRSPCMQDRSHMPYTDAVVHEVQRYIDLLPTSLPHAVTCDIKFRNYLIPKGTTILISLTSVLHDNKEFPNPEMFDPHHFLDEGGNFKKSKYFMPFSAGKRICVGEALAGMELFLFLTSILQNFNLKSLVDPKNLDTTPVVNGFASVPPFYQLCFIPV
Sequence of Cytochrome P450 3A4 (P08684 whole entry): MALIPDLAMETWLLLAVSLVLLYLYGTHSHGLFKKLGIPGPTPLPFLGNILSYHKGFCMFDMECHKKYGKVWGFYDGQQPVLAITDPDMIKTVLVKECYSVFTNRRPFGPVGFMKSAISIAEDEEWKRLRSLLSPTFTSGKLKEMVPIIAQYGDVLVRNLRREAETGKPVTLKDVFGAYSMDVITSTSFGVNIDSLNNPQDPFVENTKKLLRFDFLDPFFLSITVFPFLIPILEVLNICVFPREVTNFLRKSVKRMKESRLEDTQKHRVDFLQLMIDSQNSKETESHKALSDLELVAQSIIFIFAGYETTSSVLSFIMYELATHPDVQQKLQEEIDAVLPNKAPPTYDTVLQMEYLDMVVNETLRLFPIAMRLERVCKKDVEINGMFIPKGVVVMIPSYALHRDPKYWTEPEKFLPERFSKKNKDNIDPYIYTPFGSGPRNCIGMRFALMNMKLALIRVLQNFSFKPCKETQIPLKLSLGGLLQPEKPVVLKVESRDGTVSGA
Sequence of Cytochrome P450 2C19 (P33261 whole entry): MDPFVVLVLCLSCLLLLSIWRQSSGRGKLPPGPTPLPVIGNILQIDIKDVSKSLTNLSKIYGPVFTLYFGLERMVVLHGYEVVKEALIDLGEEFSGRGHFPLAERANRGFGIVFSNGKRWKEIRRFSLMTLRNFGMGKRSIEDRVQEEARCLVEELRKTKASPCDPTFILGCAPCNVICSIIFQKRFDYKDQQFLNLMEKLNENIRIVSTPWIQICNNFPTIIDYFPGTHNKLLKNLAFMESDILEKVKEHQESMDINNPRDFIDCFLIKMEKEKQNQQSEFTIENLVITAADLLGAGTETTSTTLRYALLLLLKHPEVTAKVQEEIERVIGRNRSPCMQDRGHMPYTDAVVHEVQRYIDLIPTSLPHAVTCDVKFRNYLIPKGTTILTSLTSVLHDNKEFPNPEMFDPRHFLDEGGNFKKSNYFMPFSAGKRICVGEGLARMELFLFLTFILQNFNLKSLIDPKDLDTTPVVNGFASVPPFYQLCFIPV
Sequence of Cytochrome P450 2D6 (P10635 whole entry): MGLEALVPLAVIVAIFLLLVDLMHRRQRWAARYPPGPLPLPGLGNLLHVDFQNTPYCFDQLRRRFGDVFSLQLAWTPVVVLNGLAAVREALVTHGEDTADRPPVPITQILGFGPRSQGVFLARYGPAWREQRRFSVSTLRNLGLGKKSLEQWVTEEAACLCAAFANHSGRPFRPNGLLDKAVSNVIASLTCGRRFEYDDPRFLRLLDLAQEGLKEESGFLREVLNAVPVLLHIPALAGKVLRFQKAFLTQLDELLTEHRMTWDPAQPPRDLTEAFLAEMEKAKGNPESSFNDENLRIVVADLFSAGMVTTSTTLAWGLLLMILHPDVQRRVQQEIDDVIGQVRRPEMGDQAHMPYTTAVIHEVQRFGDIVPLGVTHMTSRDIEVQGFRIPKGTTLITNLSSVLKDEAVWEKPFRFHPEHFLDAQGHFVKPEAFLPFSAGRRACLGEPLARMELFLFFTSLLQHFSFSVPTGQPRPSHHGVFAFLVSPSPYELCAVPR

`COc1ccc(Cn2cc(C(=O)N(C)CC3CC3)c3ncccc32)cc1` showed a pIC50 [1] of under 5.00 and an MIC [2] of over 200 µM.

`COc1ccc(Cn2cc(C(=O)NCC3CC3)c3ncccc32)cc1` showed a pIC50 [1] of 8.15 and an MIC [2] of 6.25 µM (≈ 2.1 µg/mL).

`COc1ncnc(Cn2cc(C(=O)NCC3CC3)c3ncccc32)c1C` showed an AUC at 576 h [3] of 200 µM·h, an INH (Cytochrome P450 1A2) of over 50 µM and an INH (Cytochrome P450 3A4) of over 50 µM. The INH (Cytochrome P450 2C9) was over 50 µM, the MCC at 72 h [4] was over 100 µM and the INH (Cytochrome P450 2C19) was over 50 µM. It also gave an INH [5] of over 33 µM and an INH (Cytochrome P450 2D6) of over 50 µM.

Molecule `Cc1ccc(Cn2cc(C(=O)NCC3CCC(F)(F)CC3)c3ncccc32)c(C)c1` has a pIC50 [1] of 5.10 and an MIC [2] of over 200 µM.

`Cc1ccccc1Cn1cc(C(=O)NCC2CC2)c2ncccc21` gave an MCC at 72 h [4] of 94 µM and an INH [5] of 28 µM.

Molecule `COc1ncnc(Cn2cc(C(=O)NCCO)c3ncc(C)cc32)c1C` [TBA-7371] has an INH (Cytochrome P450 1A2) of over 50 µM, an INH (Cytochrome P450 3A4) of over 50 µM and an MBC [6] of 0.78 µM (≈ 0.277 µg/mL). The INH (Cytochrome P450 2C9) was over 50 µM, the MCC at 72 h [4] was over 100 µM and the INH (Cytochrome P450 2C19) was over 50 µM. It also gave a pIC50 [1] of 8.00, an INH [5] of over 33 µM and a pIC50 [7] of under 5.00. The MIC [2] was 1.56 µM (≈ 0.554 µg/mL), the pIC50 [8] was 8.00 and the MBC [9] was over 100 µM. For the same molecule, the INH (Cytochrome P450 2D6) was over 50 µM.

In the case of `Cc1cnc2c(C(=O)NCCF)cn(Cc3ncnc(N(C)C)c3C)c2c1`, the pIC50 [1] was 7.43 and the MIC [2] was 0.78 µM (≈ 0.289 µg/mL).

For `COc1ncnc(Cn2cc(C(=O)NC[C@@H](C)F)c3ncccc32)c1C`, the MIC [2] was 0.78 µM (≈ 0.279 µg/mL).

For `Cc1ccc(Cn2cc(C(=O)NCCF)c3ncccc32)c(C)c1`, the pIC50 [1] was 8.00 and the MIC [2] was 1.56 µM (≈ 0.508 µg/mL).

For `COc1ncnc(Cn2cc(C(=O)NCCF)c3ncc(C)cc32)c1C`, the INH (Cytochrome P450 1A2) was over 50 µM, the INH (Cytochrome P450 3A4) was over 50 µM and the MBC [6] was under 0.39 µM. The INH (Cytochrome P450 2C9) was over 50 µM, the MCC at 72 h [4] was over 100 µM and the solubility kinetic at 24 h [10] was 4 µM (≈ 1.43 µg/mL). It also gave an INH (Cytochrome P450 2C19) of over 50 µM, a pIC50 [1] of 8.52 and an INH [5] of over 33 µM. For the same molecule, the pIC50 [7] was under 5.00, the MIC [2] was under 0.39 µM and the pIC50 [8] was 8.15. The MBC [9] was 100 µM (≈ 35.7 µg/mL), the INH (Cytochrome P450 2D6) was over 50 µM and the fraction unbound [11] was 0.05.

For `Cc1ccc(Cn2cc(C(=O)NCC3CC3)c3ncccc32)cc1`, the pIC50 [1] was 7.68 and the MIC [2] was 13.2 µM (≈ 4.22 µg/mL).

Work on `Cc1cccnc1Cn1cc(C(=O)NCC2CC2)c2ncccc21` yielded a pIC50 [1] of 7.08 and an MIC [2] of 27 µM (≈ 8.65 µg/mL).

`CCc1nc2cc(Cl)ccn2c1C(=O)NCc1ccc(N2CCN(c3ccc(F)cc3)CC2)cc1` gave an MBC [6] of over 200 µM, a pIC50 [1] of under 5.00 and an MIC [2] of 0.017 µM (≈ 0.00836 µg/mL). The MBC [9] was over 100 µM.

With `COc1ncnc(Cn2cc(C(=O)NC[C@H](C)F)c3ncc(C)cc32)c1C` the pIC50 [1] was 7.85 and the MIC [2] was 0.156 µM (≈ 0.0579 µg/mL).

In the case of `O=C(NCC1CC1)c1cn(CC2CCOCC2)c2cccnc12`, the pIC50 [1] was 5.60 and the MIC [2] was over 100 µM.

With `COc1ccc(Cn2cc(C(=O)NCC3CC3)c3cnccc32)cc1` the pIC50 [1] was 6.00 and the MIC [2] was over 200 µM.

Molecule `COc1cccc(F)c1Cn1cc(C(=O)NCC2CC2)c2ncccc21` has a pIC50 [1] of 8.22 and an MIC [2] of 1.56 µM (≈ 0.551 µg/mL).

Work on `Cc1c(Cn2cc(C(=O)NCCF)c3ncccc32)ncnc1N(C)C` yielded a pIC50 [1] of 7.70 and an MIC [2] of 6.25 µM (≈ 2.23 µg/mL).

`Cc1ccccc1Cn1cc(C(=O)NCCN2CCCCC2)c2ncccc21` gave a pIC50 [1] of under 5.00 and an MIC [2] of over 200 µM.

With `Cc1ccc(Cn2cc(C(=O)NCCc3ccncc3)c3ncccc32)c(C)c1` the pIC50 [1] was 5.26 and the MIC [2] was over 200 µM.

In the case of `COc1ncnc(Cn2cc(C(=O)NCCF)c3ncccc32)c1C`, the Activity [12] was “Dose-dependent effect”, the log10cfu [13] was 1 and the AUC at 576 h [3] was 200 µM·h. The log10cfu [14] was over 1.5, the Activity [15] was “Dose-dependent effect” and the “%T>MIC” value (Mus musculus) was 25%. For the same molecule, the INH (Cytochrome P450 1A2) was over 50 µM, the INH (Cytochrome P450 3A4) was over 50 µM and the log10cfu [16] was 4. For the same molecule, the MBC [6] was 1.56 µM (≈ 0.536 µg/mL), the INH (Cytochrome P450 2C9) was over 50 µM and the MCC at 72 h [4] was over 100 µM. For the same molecule, the solubility kinetic at 24 h [10] was 8 µM (≈ 2.75 µg/mL), the INH (Cytochrome P450 2C19) was over 50 µM and the pIC50 [1] was 8.00. The INH [5] was over 33 µM, the log10cfu [17] was 1.5 and the pIC50 [7] was under 5.00. For the same molecule, the log10cfu [18] was over 1.5, the MIC [2] was 1.56 µM (≈ 0.536 µg/mL) and the pIC50 [8] was 7.82. The MBC [9] was 50 µM (≈ 17.2 µg/mL), the INH (Cytochrome P450 2D6) was over 50 µM and the fraction unbound [11] was 0.098.

Molecule `COCCNC(=O)c1cn(Cc2cc(F)cnc2OC)c2cccnc12` has a pIC50 [1] of 8.40 and an MIC [2] of 0.78 µM (≈ 0.28 µg/mL).

`COc1ncnc(Cn2cc(C(=O)NCCO)c3ncccc32)c1C` gave a pIC50 [1] of 7.05 and an MIC [2] of 14 µM (≈ 4.78 µg/mL).
